Data set [1] is described as follows: in vivo. The settings on record: rat. The procedure: Absolute extraction recovery (AbsER): Bone is a heterogeneous tissue and, unlike with a plasma or urine method validation, the extraction recovery cannot be determined with a drug spiked rat bone QC sample. Therefore, it is necessary to measure a virtual known amount of drug in an incurred rat bone sample to determine the absolute extraction recovery. Using combusted IncRB samples from Group B (rats administered radio labeled ^14C-tigecycline), the amount of labeled drug in bone was measured using a liquid scintillation counter. Four aliquots of IncRB Group B (0.1 grams) were accurately weighed, placed into combustion cones, and allowed to air dry for approximately 3 days. These 4 samples were then oxidized in a Model 307/Oximate 80 sample oxidizer, using Carbosorb® E (7 ml) as a trapping agent and PermalFluor® ET (10 ml) as a scintillant. […] The oxidized samples were counted in a Packard (Perkin Elmer) liquid scintillation counter (LSC) using a toluene standard curve. The ng-equiv/ml concentrations were calculated using specific activity of the dosing solution.
In parallel, five aliquots of IncRB Group B (0.1 gram) were weighed. […]
The absolute extraction recovery was determined using the following equation: […]
[total amount of tigecycline per gram of bone (Group B, determined by LC/MS/MS)]/[total amount of tigecycline per gram of bone (Group B, after combustion as determined by LSC)]×100

The nature of data set [2]: Stability of tigecycline in incurred rat bone and in extracted rat bone sample. It is filed as physicochemical. On the procedure:
(§1) Stability tests for tigecycline in IncRB reference QC samples or incHB QC samples were conducted in 4 cycles of freeze/thaw for IncRB QC and (3 cycles for IncHB QC of −70° C./22° C.) and in standard bench top (22° C.) stability (4 hours for rat bone and 6 hours for human bone) tests. These tests occurred during sequential extraction from run 1 through run 3. Bench top stability of IncRB reference QC samples (4 hours at room temperature) and incurred human bone sample (6 hours at room temperature), and extracted tigecycline from the IncRB and incurred human reference QC samples in the autosampler at 4° C. were evaluated during the method validation. Autosampler stability of tigecycline in IncRB Group B sample (^14C) was employed as the sample pool because aliquots from IncRB Group A were exhausted from prior testing. Results were plotted as the peak area ratio against time. The 54-hour autosampler stability of incurred human bone was performed by comparing extracted samples injected immediate after extraction (baseline) with the same set of extracted samples re-injected after 54 hours of storage at 4° C., regressed with a standard curve injected immediately after extraction (baseline).

Data set [3] can be described thus: 54-hour autosampler stability of extracted tigecycline from incurred human bone with ascorbic acid. The data set is classed as physicochemical. The settings on record: ascorbic acid added. The procedure:
as §1

In data set [4] the test system is Bacillus cereus ATCC 11778. The data set is described as follows: Verification of tigecycline microbiological activity (agar well diffusion bioassay). The data set is classed as cell-based. To be noted: for Zone Size, Sample: n = 3. On the procedure: Standard Curve Preparation: A stock solution of tigecycline standard powder, at a concentration of 1000 μg/ml, was prepared in normal saline. Dilutions were prepared in normal saline at a concentration range of 4, 2, 1 and 0.5, 0.25, and 0.125 μg/ml for the preparation of the standard curve. The internal standard (1 μg/ml) was also made from stock solution.
Preparation of Inoculum: An overnight trypticase soy agar blood plate culture (incubated at 30° C.) of Bacillus cereus ATCC 11778 was adjusted to a McFarland 0.5 standard in saline. This suspension yields a bacterial density of approximately 10^8 colony forming units (CFU)/ml.
Preparation of Bioassay Agar Plates: The agar medium was prepared by adding nutrient broth (8 g) and agarose (11 g or […]) per liter of distilled water. After autoclaving at 121° C. for 15 minutes, the medium was allowed to equilibrate to a temperature of 48-50° C. for approximately 1 hour in a water bath. The adjusted B. cereus culture was used to inoculate the cooled agar to a final concentration of 1% (1 ml/100 ml). A volume of 100 ml is added to a Nunc bioassay dish and the agar allowed to solidify at room temperature on a level surface. After cooling, wells were cut into the surface of the agar assay plate using a vacuum well cutting device. The standard curve and unknown samples were placed into the wells (50 μl) in a predetermined array with three wells each per concentration. An internal standard was also tested in triplicate. The pulverized bone samples (and standards for that experiment) were overlaid with 1.1% agarose (50 μl) to maintain contact with the seeded agar. The plates were pre-diffused at 4° C. for two hours, then incubated at 30° C. for 18-24 hours.
Determination of antibiotic concentrations in IncRB samples: The diameters of the zones of inhibition for standards and samples were measured using electronic calipers. The concentrations of the standard curve were then plotted on a semilogarithmic scale vs their corresponding zone diameters to give a standard regression curve. The concentrations of the samples and internal standard were determined by comparing the mean zone size of the samples to the zone sizes of the standard curve and their corresponding concentration. A bioassay data analysis program was used to perform the calculations and plots.
On the technique in general: Agar diffusion results depend on both activity and mobility in agar.

[5] abbreviates: Bone Extract (non-neutralized) (pH 1.7), IncRB Group B.

SMILES strings stand for the structures. Where “and” joins values, the source holds several entries; their conditions need not be identical. Equal entries are not always repeated. Marks after values point to notes of the source that are not given here.

In turn, `CN(C)c1cc(NC(=O)CNC(C)(C)C)c(O)c2c1C[C@H]1C[C@H]3[C@H](N(C)C)C(O)=C(C(N)=O)C(=O)[C@@]3(O)C(O)=C1C2=O` [tigecycline, Tigecycline] showed a concentration at 4 h in data set [1] of 3190 ng/g. The Measured conc. in data set [1] (4 h) was 4137^a ng-equivalent/g of bone. Also, the “Freeze/thaw stability in incurred rat bone” value in data set [2] (after 4 cycles of freeze/thaw (−70° C./22° C.)) is on record as “stable”. In addition, in data set [2] (after 4 hours at room temperature), the “Bench top stability in incurred rat bone” value is “stable”. For the same compound, in data set [2] (extracted sample at 4° C., no stabilizing agent), the “Stability of extracted tigecycline from IncRB samples” value is 8.5 h. Besides, the “Storage stability in incurred rat bone” value in data set [2] (stored at −70° C.) is “at least 5 months”. For the same compound, the “Re-injection stability of extracted tigecycline” value in data set [2] (within 5 hours, no stabilizing agent) is on record as 5 re-injections. The “% Difference (54 hours vs initial)” value in data set [3] (54 hours at 4° C.) is listed as −0.7%. In data set [3] (incurred human bone), the “Initial Concentration immediately after extraction (replicates)” value was 261 and 258 and 270 and 269 and 218. Also, in data set [3] (incurred human bone), the “Re-injected sample concentration after 54-hour at 4° C. (replicates)” value was 288 and 250 and 227 and 277 and 223. For the same compound, in data set [3] (n = 5, incurred human bone), the “Initial Concentration immediately after extraction, Mean” value was 255. Also, the “Re-injected sample concentration after 54-hour at 4° C., Mean” value in data set [3] (n = 5, incurred human bone) is on record as 253. The “Zone Size, Sample minus diluent” value stood at 11.8 mm in data set [4] (setting [5]), 0 mm in data set [4] (Neutralized Bone Extract A (pH 7.0)) and 0 mm in data set [4] (Neutralized Bone Extract B (pH 7.0)). Further, the “Zone Size, Sample” value is reported as 33.3 mm in data set [4] (setting [5]); 0 mm in data set [4] (Neutralized Bone Extract A (pH 7.0), neutralization prior to methanol evaporation); 0 mm in data set [4] (Neutralized Bone Extract B (pH 7.0), neutralization after methanol evaporation).
